Experimental data as given in patent publication US11236046B2, “Substituted heterocyclic sulfonamide compounds useful as TRPA1 modulators” (Genentech, Inc., priority 2013, dated 2022).

Target: human TRPA1 (Homo sapiens (Human), UniProt O75762)
Assay: FLIPR Tetra calcium influx assay, block of cinnamaldehyde-induced calcium influx in CHO cells expressing TRPA1 (human)
Type: cell-based
Conditions: 20 min compound incubation, 75 uM cinnamaldehyde (~EC80), Hill coefficient fixed to 1.5, read-out: hTRPA1 AUC IC50
Experimental: IC50 Determinations of Exemplified Compounds.
IC50s (effective concentration) of compounds on the human and rat TRPA1 channels were determined using a FLIPR Tetra instrument. CHO cells expressing TRPA1 were plated into 384-well plates, incubated overnight at 37C, and loaded with BD calcium indicator dye for 1 hr at 37° C. followed by 15 minutes. at room temperature. The assay buffer was Hank's Balanced Salt Solution (HBSS) containing 20 mM HEPES (pH readjusted to 7.4) along with 0.02% BSA.
Following dye load and plate cool down, compounds were added to the cells using FLIPR Tetra. Plates were then incubated with compounds for 20 minutes at room temperature prior to adding agonist. Following this incubation, ˜EC80 concentration of cinnamaldehyde (75 uM for human TRPA1 and 45 uM for rat TRPA1) was added to active the channels and block of cinnamaldehyde induced calcium influx was measured.
Fixing the Hill coefficient will generally reduce variability of the IC50 determination. The IC50s were individually examined to make sure the MIN and MAX points were set correctly prior to validation of the results.

Chain of human TRPA1 (O75762 whole entry): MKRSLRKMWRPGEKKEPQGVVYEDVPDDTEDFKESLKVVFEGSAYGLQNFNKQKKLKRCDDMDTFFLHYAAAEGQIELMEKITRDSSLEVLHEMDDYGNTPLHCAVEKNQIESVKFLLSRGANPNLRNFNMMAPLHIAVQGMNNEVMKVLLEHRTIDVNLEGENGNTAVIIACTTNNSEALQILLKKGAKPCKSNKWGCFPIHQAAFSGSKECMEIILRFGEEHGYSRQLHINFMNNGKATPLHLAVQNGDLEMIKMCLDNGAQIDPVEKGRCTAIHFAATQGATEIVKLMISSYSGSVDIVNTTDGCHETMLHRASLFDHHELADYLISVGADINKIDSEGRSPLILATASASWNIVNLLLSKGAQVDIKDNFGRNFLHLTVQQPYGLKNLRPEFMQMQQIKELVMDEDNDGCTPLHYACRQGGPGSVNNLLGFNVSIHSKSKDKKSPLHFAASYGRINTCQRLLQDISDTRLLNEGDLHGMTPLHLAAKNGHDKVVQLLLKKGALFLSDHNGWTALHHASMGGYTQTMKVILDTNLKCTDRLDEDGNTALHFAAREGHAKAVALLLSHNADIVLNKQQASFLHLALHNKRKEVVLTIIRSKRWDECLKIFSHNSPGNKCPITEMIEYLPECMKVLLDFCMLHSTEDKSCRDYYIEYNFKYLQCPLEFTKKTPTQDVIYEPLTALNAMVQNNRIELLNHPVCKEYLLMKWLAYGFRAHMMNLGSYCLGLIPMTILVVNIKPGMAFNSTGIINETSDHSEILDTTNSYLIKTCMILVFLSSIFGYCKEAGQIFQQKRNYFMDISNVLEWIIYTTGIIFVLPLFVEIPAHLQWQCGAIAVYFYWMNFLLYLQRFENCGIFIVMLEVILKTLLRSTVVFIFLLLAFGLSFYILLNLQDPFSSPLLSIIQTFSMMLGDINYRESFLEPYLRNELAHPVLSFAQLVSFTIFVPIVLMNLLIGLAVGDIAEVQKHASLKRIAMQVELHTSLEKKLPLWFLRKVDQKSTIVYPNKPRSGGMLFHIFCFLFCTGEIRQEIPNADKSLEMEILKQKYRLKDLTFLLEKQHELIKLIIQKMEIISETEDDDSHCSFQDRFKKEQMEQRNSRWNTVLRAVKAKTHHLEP

| IC50 [nM] | SMILES |
| --- | --- |
| 13 | O=C(NCc1cc(-c2cnc(C(F)(F)F)cn2)ccc1F)[C@@H]1C[C@@H](F)CN1S(=O)(=O)c1ccc(F)cc1 [Example 54, (2S,4R)-4-fluoro-N-(2-fluoro-5-(5-(trifluoromethyl)pyrazin-2-yl)benzyl)-1-((4-fluorophenyl)sulfonyl)pyrrolidine-2-carboxamide] |
| 46 | O=C(NCc1cc(C2=CCC(C(F)(F)F)CC2)ncn1)[C@@H]1C[C@@H](F)CN1S(=O)(=O)c1ccc(F)cc1 (stereo partly drawn) [Example 148, (2S,4R)-4-fluoro-1-(4-fluorophenylsulfonyl)-N-((6-(4-(trifluoromethyl)cyclohex-1-enyl)pyrimidin-4-yl)methyl)pyrrolidine-2-carboxamide] |
| 16 | O=C(NCc1cc(F)cc(-c2ccc(C(F)(F)F)nc2)c1)[C@@H]1C[C@@H](F)CN1S(=O)(=O)c1ccc(F)cc1 [Example 139, (2S,4R)-4-fluoro-1-(4-fluorophenyl)sulfonyl-N-[[3-fluoro-5-[6-(trifluoromethyl)-3-pyridyl]phenyl]methyl]pyrrolidine-2-carboxamide] |
| 41 | O=C(NCc1cc(-c2ccc(OC(F)F)cc2)ncn1)[C@@H]1C[C@@H](F)CN1S(=O)(=O)c1ccc(F)cc1 [Example 64, (2S,4R)—N-[[6-[4-(difluoromethoxy)phenyl]pyrimidin-4-yl]methyl]-4-fluoro-1-(4-fluorophenyl)sulfonyl-pyrrolidine-2-carboxamide] |
| 23 | N#Cc1cnc(CNC(=O)[C@@H]2C[C@@H](F)CN2S(=O)(=O)c2ccc(F)cc2)cc1-c1ccc(C(F)(F)F)cc1 [Example 70, (2S,4R)—N-((5-cyano-4-(4-(trifluoromethyl)phenyl)pyridin-2-yl)methyl)-4-fluoro-1-(4-fluorophenylsulfonyl)pyrrolidine-2-carboxamide] |
| 47 | COc1cc(CNC(=O)[C@@H]2C[C@@H](F)CN2S(=O)(=O)c2ccc(F)cc2)cc(-c2ccc(C(F)(F)F)nc2)c1 [Example 116, (2S,4R)-4-fluoro-1-(4-fluorophenyl)sulfonyl-N-[[3-methoxy-5-[6-(trifluoromethyl)-3-pyridyl]phenyl]methyl]pyrrolidine-2-carboxamide] |
| 11 | O=C(NCc1cc(-c2ccc(C(F)(F)F)cn2)ccc1F)[C@@H]1C[C@@H](F)CN1S(=O)(=O)c1ccc(F)cc1 [Example 162, (2S,4R)-4-fluoro-N-(2-fluoro-5-(5-(trifluoromethyl)pyridin-2-yl)benzyl)-1-((4-fluorophenyl)sulfonyl)pyrrolidine-2-carboxamide] |
| 290 | O=C(NCc1ccnc(-c2cnc(C(F)(F)F)cn2)c1)[C@@H]1C[C@@H](F)CN1S(=O)(=O)c1ccc(F)cc1 [Example 67, (2S,4R)-4-fluoro-1-(4-fluorophenyl)sulfonyl-N-[[2-[5-(trifluoromethyl)pyrazin-2-yl]-4-pyridyl]methyl]pyrrolidine-2-carboxamide] |
| 14 | O=C(NCc1cc(Cl)nc(-c2ccc(C(F)(F)F)nc2)c1)[C@@H]1C[C@@H](F)CN1S(=O)(=O)c1ccc(F)cc1 [Example 84, (2S,4R)—N-[[2-chloro-6-[6-(trifluoromethyl)-3-pyridyl]-4-pyridyl]methyl]-4-fluoro-1-(4-fluorophenyl)sulfonyl-pyrrolidine-2-carboxamide] |
| 138 | O=C(NCc1cn(-c2ccc(C(F)(F)F)nc2)nc1Cl)[C@@H]1CCN1S(=O)(=O)c1ccc(F)cc1 [Example 199, (2S)—N-([3-chloro-1-[6-(trifluoromethyl)pyridin-3-yl]-1H-pyrazol-4-yl]methyl)-1-[(4-fluorobenzene)sulfonyl]azetidine-2-carboxamide] |

The remaining lines, values behind:

| SMILES | IC50 [nM] |
| --- | --- |
| Cc1cc(-c2cnc(C(F)(F)F)nc2)cc(CNC(=O)[C@@H]2C[C@@H](F)CN2S(=O)(=O)c2ccc(F)cc2)n1 [Example 48, (2S,4R)-4-fluoro-1-(4-fluorophenyl)sulfonyl-N-[[6-methyl-4-[2-(trifluoromethyl)pyrimidin-5-yl]-2-pyridyl]methyl]pyrrolidine-2-carboxamide] | 152 |
| N#Cc1cnc(-c2ccc(C(F)(F)F)cc2)cc1CNC(=O)[C@@H]1C[C@@H](F)CN1S(=O)(=O)c1ccc(F)cc1 [Example 78, (2S,4R)—N-([5-cyano-2-[4-(trifluoromethyl)phenyl]pyridin-4-yl]methyl)-4-fluoro-1-[(4-fluorobenzene)sulfonyl]pyrrolidine-2-carboxamide] | 7 |
| O=C(NCc1cc(-c2ccc(C(F)F)cc2)c(F)cn1)[C@@H]1C[C@@H](F)CN1S(=O)(=O)c1ccc(F)cc1 [Example 88, (2S,4R)—N-[[4-[4-(difluoromethyl)phenyl]-5-fluoro-2-pyridyl]methyl]-4-fluoro-1-(4-fluorophenyl)sulfonyl-pyrrolidine-2-carboxamide] | 41 |
| COc1nn(-c2ccc(C(F)(F)F)cc2)cc1CNC(=O)[C@@H]1C[C@@H](C#N)CN1S(=O)(=O)c1ccc(F)cc1 [Example 110, (2S,4R)-4-cyano-1-[(4-fluorobenzene)sulfonyl]-N-([3-methoxy-1-[4-(trifluoromethyl)phenyl]-1H-pyrazol-4-yl]methyl)pyrrolidine-2-carboxamide] | 165 |
| Cc1cc(-c2cnc(C(F)(F)F)nc2)cc(CNC(=O)[C@@H]2[C@@H](F)CCN2S(=O)(=O)c2ccc(F)cc2)n1 [Example 191, (2R,3S)-3-fluoro-1-[(4-fluorobenzene)sulfonyl]-N-([6-methyl-4-[2-(trifluoromethyl)pyrimidin-5-yl]pyridin-2-yl]methyl)pyrrolidine-2-carboxamide] | 27 |
| C[C@@]1(F)C[C@@H](C(=O)NCc2cc(-c3cnc(C(F)(F)F)nc3)ccc2F)N(S(=O)(=O)c2ccc(F)cc2)C1 [Example 187, (2S,4R)-4-fluoro-N-(2-fluoro-5-(2-(trifluoromethyl)pyrimidin-5-yl)benzyl)-1-((4-fluorophenyl)sulfonyl)-4-methylpyrrolidine-2-carboxamide] | 6 |
| O=C(NCc1cc(F)cc(-c2ccc(C(F)(F)F)cn2)c1)[C@@H]1C[C@@H](F)CN1S(=O)(=O)c1ccc(F)cc1 [Example 95, (2S,4R)-4-fluoro-1-(4-fluorophenyl)sulfonyl-N-[[3-fluoro-5-[5-(trifluoromethyl)-2-pyridyl]phenyl]methyl]pyrrolidine-2-carboxamide] | 12 |
| COc1nn(-c2ccc(C(F)(F)F)cc2)cc1CNC(=O)[C@@H]1C[C@@H](F)CN1S(=O)(=O)c1ccc(F)cc1 [Example 135, (2S,4R)-4-fluoro-1-[(4-fluorobenzene)sulfonyl]-N-([3-methoxy-1-[4-(trifluoromethyl)phenyl]-1H-pyrazol-4-yl]methyl)pyrrolidine-2-carboxamide] | 11 |
| COCCOc1cc(-c2ccc(C(F)(F)F)nc2)cc(CNC(=O)[C@@H]2C[C@@H](F)CN2S(=O)(=O)c2ccc(F)cc2)n1 [Example 170, (2S,4R)-4-fluoro-1-(4-fluorophenylsulfonyl)-N-((6′-(2-methoxyethoxy)-6-(trifluoromethyl)-3,4′-bipyridin-2′-yl)methyl)pyrrolidine-2-carboxamide] | 89 |
| O=C(NCc1cc(-c2cnc(C(F)(F)F)nc2)nc(-c2cnc(C(F)(F)F)nc2)c1)[C@@H]1C[C@@H](F)CN1S(=O)(=O)c1ccc(F)cc1 [Example 61, (2S,4R)—N-[[2,6-bis[2-(trifluoromethyl)pyrimidin-5-yl]-4-pyridyl]methyl]-4-fluoro-1-(4-fluorophenyl)sulfonyl-pyrrolidine-2-carboxamide] | 71 |
